Test results from US11168086B2, “Methods of synthesizing pyrazine compounds” (Hoffmann-La Roche Inc., priority 2015, dated 2021).

System: HBV
Test: HBV inhibition assay: anti-HBV activity in vitro in HepG2.2.15 cells (extracellular HBV DNA by qPCR)
Assay type: cell-based
Settings: Hepatitis B virus, 120 h, five days after compound treatment, extracellular HBV DNA in culture supernatant by qPCR, concentration at which HBV replication is inhibited by 50%
How it was run: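 HepG2.2.15 cells (stably carrying HBV genome) treated with half-log serially diluted compounds at 0.5% DMSO final for five days. Extracellular HBV DNA in supernatant quantified by qPCR after Proteinase K digestion; EC50 is concentration giving 50% inhibition of replication.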

| SMILES | EC50 |
| --- | --- |
| C[C@H]1Cn2ncc(N3CCOCC3=O)c2CN1C(=O)Nc1ccc(F)c(Cl)c1 [Example 364, (6S)—N-(3-chloro-4-fluoro-phenyl)-6-methyl-3-(3-oxomorpholin-4-yl)-6,7-dihydro-4H-pyrazolo[1,5-a]pyrazine-5-carboxamide] | 28 nM |
| C[C@H]1Cn2ncc(N3CCNC3=O)c2CN1C(=O)Nc1cc(F)c(F)c(F)c1 [Example 368, (6S)-6-methyl-3-(2-oxoimidazolidin-1-yl)-N-(3,4,5-trifluorophenyl)-6,7-dihydro-4H-pyrazolo[1,5-a]pyrazine-5-carboxamide] | 47 nM |
| C[C@H]1Cn2ncc(N3CC(C)(C)OCC3=O)c2CN1C(=O)Nc1ccc(F)c(Cl)c1 [Example 371, (6S)—N-(3-chloro-4-fluoro-phenyl)-3-(2,2-dimethyl-5-oxo-morpholin-4-yl)-6-methyl-6,7-dihydro-4H-pyrazolo[1,5-a]pyrazine-5-carboxamide] | 20 nM |
| C[C@H]1Cn2ncc(N3C(=O)COC[C@@H]3C)c2CN1C(=O)Nc1cc(F)c(F)c(F)c1 [Example 372, (6S)-6-methyl-3-[(3S)-3-methyl-5-oxo-morpholin-4-yl]-N-(3,4,5-trifluorophenyl)-6,7-dihydro-4H-pyrazolo[1,5-a]pyrazine-5-carboxamide] | 50 nM |
| C[C@H]1Cn2ncc(N3CCNC3=O)c2CN1C(=O)Nc1cc(F)c(F)c(C(F)F)c1 [Example 373, (6S)—N-[3-(difluoromethyl)-4,5-difluoro-phenyl]-6-methyl-3-(2-oxoimidazolidin-1-yl)-6,7-dihydro-4H-pyrazolo[1,5-a]pyrazine-5-carboxamide] | 22 nM |
| C[C@H]1Cn2ncc(N3C[C@H](O)CC3=O)c2CN1C(=O)Nc1cc(F)c(F)c(F)c1 [Example 376, (6S)-3-[(4R)-4-hydroxy-2-oxo-pyrrolidin-1-yl]-6-methyl-N-(3,4,5-trifluorophenyl)-6,7-dihydro-4H-pyrazolo[1,5-a]pyrazine-5-carboxamide] | 88 nM |
| C[C@H]1Cn2ncc(N3C[C@@H](O)CC3=O)c2CN1C(=O)Nc1cc(F)c(F)c(F)c1 [Example 377, (6S)-3-[(4S)-4-hydroxy-2-oxo-pyrrolidin-1-yl]-6-methyl-N-(3,4,5-trifluorophenyl)-6,7-dihydro-4H-pyrazolo[1,5-a]pyrazine-5-carboxamide] | 81 nM |
| CO[C@H]1CC(=O)N(c2cnn3c2CN(C(=O)Nc2cc(F)c(F)c(F)c2)[C@@H](C)C3)C1 [Example 378, (6S)-3-[(4S)-4-methoxy-2-oxo-pyrrolidin-1-yl]-6-methyl-N-(3,4,5-trifluorophenyl)-6,7-dihydro-4H-pyrazolo[1,5-a]pyrazine-5-carboxamide] | 28 nM |
| CO[C@@H]1CC(=O)N(c2cnn3c2CN(C(=O)Nc2cc(F)c(F)c(F)c2)[C@@H](C)C3)C1 [Example 379, (6S)-3-[(4R)-4-methoxy-2-oxo-pyrrolidin-1-yl]-6-methyl-N-(3,4,5-trifluorophenyl)-6,7-dihydro-4H-pyrazolo[1,5-a]pyrazine-5-carboxamide] | 38 nM |
| C[C@H]1Cn2ncc(N3C[C@@H](Oc4ncccn4)CC3=O)c2CN1C(=O)Nc1cc(F)c(F)c(F)c1 [Example 381, (6S)-6-methyl-3-[(4S)-2-oxo-4-pyrimidin-2-yloxy-pyrrolidin-1-yl]-N-(3,4,5-trifluorophenyl)-6,7-dihydro-4H-pyrazolo[1,5-a]pyrazine-5-carboxamide] | 5 nM |
| C[C@H]1Cn2ncc(N3C[C@@H](Oc4ncc(F)cn4)CC3=O)c2CN1C(=O)Nc1cc(F)c(F)c(F)c1 [Example 382, (6S)-3-[(4S)-4-(5-fluoropyrimidin-2-yl)oxy-2-oxo-pyrrolidin-1-yl]-6-methyl-N-(3,4,5-trifluorophenyl)-6,7-dihydro-4H-pyrazolo[1,5-a]pyrazine-5-carboxamide] | 16 nM |
| C[C@H]1Cn2ncc(N3CC(C(=O)N4CCOCC4)CC3=O)c2CN1C(=O)Nc1cc(F)c(F)c(F)c1 (stereo partly drawn) [Example 386, (6S)-6-methyl-3-[4-(morpholine-4-carbonyl)-2-oxo-pyrrolidin-1-yl]-N-(3,4,5-trifluorophenyl)-6,7-dihydro-4H-pyrazolo[1,5-a]pyrazine-5-carboxamide] | 88 nM |
| C[C@H]1Cn2ncc(N3CC(C(=O)N(C)C)CC3=O)c2CN1C(=O)Nc1cc(F)c(F)c(F)c1 (stereo partly drawn) [Example 390, (6S)-3-[4-(dimethylcarbamoyl)-2-oxo-pyrrolidin-1-yl]-6-methyl-N-(3,4,5-trifluorophenyl)-6,7-dihydro-4H-pyrazolo[1,5-a]pyrazine-5-carboxamide] | 103 nM |
| C[C@H]1Cn2ncc(N3CC(C(=O)N4CCCC4)CC3=O)c2CN1C(=O)Nc1cc(F)c(F)c(F)c1 (stereo partly drawn) [Example 391, (6S)-6-methyl-3-[2-oxo-4-(pyrrolidine-1-carbonyl)pyrrolidin-1-yl]-N-(3,4,5-trifluorophenyl)-6,7-dihydro-4H-pyrazolo[1,5-a]pyrazine-5-carboxamide] | 74 nM |
| C[C@H]1Cn2ncc(N3CC(C(=O)Nc4ncco4)CC3=O)c2CN1C(=O)Nc1cc(F)c(F)c(F)c1 (stereo partly drawn) [Example 392, (6S)-6-methyl-3-[4-(oxazol-2-ylcarbamoyl)-2-oxo-pyrrolidin-1-yl]-N-(3,4,5-trifluorophenyl)-6,7-dihydro-4H-pyrazolo[1,5-a]pyrazine-5-carboxamide] | 88 nM |
| C[C@H]1Cn2ncc(N3CC(C(=O)N4CCOC(C)(C)C4)CC3=O)c2CN1C(=O)Nc1cc(F)c(F)c(F)c1 (stereo partly drawn) [Example 393, (6S)-3-[4-(2,2-dimethylmorpholine-4-carbonyl)-2-oxo-pyrrolidin-1-yl]-6-methyl-N-(3,4,5-trifluorophenyl)-6,7-dihydro-4H-pyrazolo[1,5-a]pyrazine-5-carboxamide] | 70 nM |
| C[C@@H]1CN(C(=O)C2CC(=O)N(c3cnn4c3CN(C(=O)Nc3cc(F)c(F)c(F)c3)[C@@H](C)C4)C2)CCO1 (stereo partly drawn) [Example 394, (6S)-6-methyl-3-[4-[(2R)-2-methylmorpholine-4-carbonyl]-2-oxo-pyrrolidin-1-yl]-N-(3,4,5-trifluorophenyl)-6,7-dihydro-4H-pyrazolo[1,5-a]pyrazine-5-carboxamide] | 65 nM |
| C[C@H]1CN(C(=O)C2CC(=O)N(c3cnn4c3CN(C(=O)Nc3cc(F)c(F)c(F)c3)[C@@H](C)C4)C2)CCO1 (stereo partly drawn) [Example 395, (6S)-6-methyl-3-[4-[(2S)-2-methylmorpholine-4-carbonyl]-2-oxo-pyrrolidin-1-yl]-N-(3,4,5-trifluorophenyl)-6,7-dihydro-4H-pyrazolo[1,5-a]pyrazine-5-carboxamide] | 88 nM |
| C[C@@H]1CN(C(=O)C2CC(=O)N(c3cnn4c3CN(C(=O)Nc3cc(F)c(F)c(F)c3)[C@@H](C)C4)C2)C[C@@H](C)O1 (stereo partly drawn) [Example 396, (6S)-3-[4-[trans-2,6-dimethylmorpholine-4-carbonyl]-2-oxo-pyrrolidin-1-yl]-6-methyl-N-(3,4,5-trifluorophenyl)-6,7-dihydro-4H-pyrazolo[1,5-a]pyrazine-5-carboxamide] | 58 nM |
| C[C@@H]1CN(C(=O)C2CC(=O)N(c3cnn4c3CN(C(=O)Nc3cc(F)c(F)c(F)c3)[C@@H](C)C4)C2)C[C@H](C)O1 (stereo partly drawn) [Example 397, (6S)-3-[4-[cis-2,6-dimethylmorpholine-4-carbonyl]-2-oxo-pyrrolidin-1-yl]-6-methyl-N-(3,4,5-trifluorophenyl)-6,7-dihydro-4H-pyrazolo[1,5-a]pyrazine-5-carboxamide] | 60 nM |
